Experimental data: BigSolDB 2.1

O=C1C=CC(=O)c2ccccc21
Conditions	solubility (mole fraction)
in acetone, 293.27 K	0.0362
in acetone, 295.46 K	0.0373
in acetone, 295.8 K	0.0377
in acetone, 298.25 K	0.0399
in acetone, 298.51 K	0.0403
in acetone, 299.07 K	0.0411
in acetone, 300.66 K	0.0437
in acetone, 302.06 K	0.0467
in acetone, 304 K	0.0503
in acetone, 305.3 K	0.0532
in acetone, 308.24 K	0.0584
in acetone, 311.24 K	0.0639
in acetone, 312.91 K	0.0683
in acetone, 314.97 K	0.0727
in acetone, 316.33 K	0.0767
in acetone, 318.06 K	0.081
in acetone, 319.63 K	0.0856
in ethanol, 279.8 K	0.00145
in ethanol, 285.78 K	0.00221
in ethanol, 289.05 K	0.00277
in ethanol, 292.72 K	0.00335
in ethanol, 296.52 K	0.00412
in ethanol, 299.87 K	0.00487
in ethanol, 303.25 K	0.00596
in ethanol, 305.99 K	0.00696
in ethanol, 309.13 K	0.00825
in ethanol, 311.85 K	0.00945
in ethanol, 314.73 K	0.0109
in ethanol, 316.84 K	0.0121
in ethanol, 319.52 K	0.0134
in ethanol, 321.15 K	0.0145
in ethanol, 322.93 K	0.0157
in ethanol, 328.25 K	0.0199
in ethanol, 329.13 K	0.0212
in ethanol, 331.34 K	0.0235
in ethanol, 333.04 K	0.0256
in ethanol, 334.13 K	0.0274
in ethanol, 335.43 K	0.0294
in n-butanol, 302.1 K	0.00657
in n-butanol, 307.2 K	0.00908
in n-butanol, 312.32 K	0.012
in n-butanol, 317.1 K	0.0152
in n-butanol, 319.33 K	0.017
in n-butanol, 320.94 K	0.0183
in n-butanol, 322.16 K	0.0199
in n-butanol, 325.85 K	0.0238
in n-butanol, 330.35 K	0.0307
in n-butanol, 334.33 K	0.0377
in n-butanol, 336.45 K	0.0434
in n-butanol, 339.23 K	0.05
in n-butanol, 341.3 K	0.056
in n-butanol, 343.26 K	0.0624
in n-butanol, 344.6 K	0.0695
in n-butanol, 346.03 K	0.0763
in toluene, 294.1 K	0.0476
in toluene, 297.82 K	0.0537
in toluene, 300.35 K	0.0585
in toluene, 302.68 K	0.0631
in toluene, 304.44 K	0.0668
in toluene, 306.58 K	0.0723
in toluene, 310.16 K	0.081
in toluene, 313.15 K	0.089
in toluene, 315.25 K	0.094
in toluene, 317.27 K	0.0994
in toluene, 319.93 K	0.107
in toluene, 321.45 K	0.113
in toluene, 322.53 K	0.116
in toluene, 322.93 K	0.118
in toluene, 327.2 K	0.133
in toluene, 330.45 K	0.145
in toluene, 331.95 K	0.153
